Molecules are shown by their SMILES.

The data set is described as follows: photoluminescence quantum yield (fraction); solvent given as SMILES.
The mark [1] stands for this setting: in c1cc(-c2cccc(-n3c4ccccc4c4ccccc43)c2)cc(-n2c3ccccc3c3ccccc32)c1.

As to `CCN(CC)c1ccc2cc(/C=C/C3=C4CC/C(=C\c5cc6ccc(N(CC)CC)cc6oc5=O)C4=[O+][B-](F)(F)O3)c(=O)oc2c1`, the photoluminescence quantum yield turned out to be 0.3 (in C1COCCO1); 0.18 (in CC(C)=O); 0.2 (in CCOC(C)=O); 0.0068 (in CS(C)=O); 0.4 (in Cc1ccccc1); 0.22 (in ClC(Cl)Cl).
Take `Cc1cc(O)c(C(=O)/C=C/c2ccc(N(C)C)cc2)c(=O)o1`: the photoluminescence quantum yield was 0.018 (in CC#N) and 0.538 (in ClCCl).
The molecule `N#Cc1c(C#N)c(-n2c3ccccc3c3ccccc32)c(-n2c3ccccc3c3ccccc32)c(-n2c3ccccc3c3ccccc32)c1-n1c2ccccc2c2ccccc21` gave a photoluminescence quantum yield (in Cc1ccccc1) of 0.744.
In the case of `COc1ccc(-c2nc3c([nH]2)=C2C=C(Cl)S[C@@]2(C)[C@]2(C)SC(Cl)=CC=32)cc1`, the photoluminescence quantum yield (in CC#N) was determined as 0.002.
As to `C(S/C=C/c1ccc(/C=C/SC=C(c2ccccc2)c2ccccc2)cc1)=C(c1ccccc1)c1ccccc1`, the photoluminescence quantum yield (in ClCCl) turned out to be 0.058.
Turning to `CN(C)c1ccc2c(c1)[Si](C)(C)C1=CC(=[N+](C)C)C=CC1=C2C#Cc1ccccc1`, the photoluminescence quantum yield is 0.07 (in CO) and 0.004 (in O).
Where the note is “in C1CCOC1”, `CCCCCOc1cc2oc(=O)c3c4ccc(N)cc4c4ccc5cccc6c(c1)c2c3c4c56` returned a photoluminescence quantum yield of 0.486.
In the case of `c1ccc(-c2c3ccccc3c(-c3ccccc3)c3ccccc23)cc1`, the photoluminescence quantum yield (in C1CCCCC1) stood at 0.97.
Take `CCCCCCN1C(=O)c2cccc3c(-c4ccc(-c5ccc6c7c(cccc57)C(=O)N(CCCCCC)C6=O)s4)ccc(c23)C1=O`: the photoluminescence quantum yield (in ClC(Cl)Cl) was 0.15.
The molecule `Oc1cccc2c(C3(O)C4CC5CC(C4)CC3C5)cccc12` (stereo unspecified) registered a photoluminescence quantum yield (in CC#N) of 0.33.
On to `CCOC(=O)c1sc2nc(-c3ccccc3)c(C)c(C#N)c2c1N`, for which the photoluminescence quantum yield (in C1COCCO1) is 0.024; the photoluminescence quantum yield (in CC#N) stood at 0.009; the photoluminescence quantum yield (in CCOC(C)=O) was found to be 0.027; the photoluminescence quantum yield (in ClC(Cl)Cl) is 0.037; the photoluminescence quantum yield (in c1ccccc1) was 0.047.
`CCCCCCc1cc2c3c(c1)c(=C1c4ccccc4Sc4ccccc41)c1cc(CCCCCC)cc4c1N3c1c(cc(CCCCCC)cc1c4=C1c3ccccc3Sc3ccccc31)c2=C1c2ccccc2Sc2ccccc21` showed a photoluminescence quantum yield (in ClCCl) of 0.57.
With `COCCC1(CCOC)c2cc(-c3ccc(OC)cc3)ccc2-c2ccc(-c3ccc(OC)cc3)cc21`, the photoluminescence quantum yield (in C1CCCCC1) stood at 0.61.
`CCCC1=Cc2nc1ccc1[nH]c(cc1CCC)c1nc(c(OC(=O)CCCC(=O)OC(C)(C)C)cc3[nH]c2cc3CCC)C(CCC)=C1`: for the setting “in Cc1ccccc1”, the photoluminescence quantum yield was 0.21.
For the molecule `CC(C)[Si](C#Cc1ccc(C#C[Si](C(C)C)(C(C)C)C(C)C)c2nc3c(nc12)C1c2ccccc2C3c2ccccc21)(C(C)C)C(C)C`, under “in CCCCCC”, the photoluminescence quantum yield was determined as 0.1.
`CCCCCCOc1cc(/C=C/c2cc(OCCCCCC)c(/C=C/c3cc(OCCCCCC)c(C=O)cc3OCCCCCC)cc2OCCCCCC)c(OCCCCCC)cc1C=O` showed a photoluminescence quantum yield (in ClCCl) of 0.52.
In the case of `c1cc2c3c(c1)OCCCCCCCCOc1cccc(c1-c1c4ccccc4c-3c3ccccc13)OCCCCCCCCO2`, the photoluminescence quantum yield (in C1CCCCC1) came out at 0.95.
For the molecule `CCC1(CC)c2cc(C#Cc3cc(C#Cc4ccc5c(c4)C(CC)(CC)c4cc(N(c6ccccc6)c6ccccc6)ccc4-5)c4ccc5c(C#Cc6ccc7c(c6)C(CC)(CC)c6cc(N(c8ccccc8)c8ccccc8)ccc6-7)cc(C#Cc6ccc7c(c6)C(CC)(CC)c6cc(N(c8ccccc8)c8ccccc8)ccc6-7)c6ccc3c4c65)ccc2-c2ccc(N(c3ccccc3)c3ccccc3)cc21`, the photoluminescence quantum yield (in Cc1ccccc1) was 0.43.
As for `CC(C)(C)NC(=O)c1c([Si](C)(C)C)cc2ccc3cccc4ccc1c2c34`, under “in ClC(Cl)Cl”, the photoluminescence quantum yield was 0.151.
With `CC1(C)CC(NCc2ccc3ccc4cccc5ccc2c3c45)CC(C)(C)N1`, the photoluminescence quantum yield worked out at 0.55 (in C1CCCCC1), 0.04 (in CC#N), 0.14 (in CO) and 0.08 (in ClC(Cl)Cl).
For the molecule `CCN(CC)c1ccc2c(c1)oc(=O)c1cc3c(-c4ccccc4)nn(-c4ccccc4)c3nc12`, the photoluminescence quantum yield runs as follows: (in C1CCCCC1) 0.31; (in CCOC(C)=O) 0.195; (in CN(C)C=O) 0.013; (in CO) 0.002; (in ClCCl) 0.24.
As to `CCCCN1c2ccccc2Sc2cc(/C=C/c3nc4nc5ccccc5nc4s3)ccc21`, the photoluminescence quantum yield is, setting by setting: (in C1CCCCC1) 0.27; (in C1CCOC1) 0.01; (in C1COCCO1) 0.07; (in CC#N) 0; (in CC(C)=O) 0.001; (in CC(C)O) 0. Further, the photoluminescence quantum yield runs as follows: (in CCOC(C)=O) 0.02; (in CCOCC) 0.05; (in CO) 0; (in CS(C)=O) 0; (in Cc1ccccc1) 0.08; (in ClCCl) 0.008.
On to `O=Cc1ccc(C=C(c2ccccc2)c2ccccc2)cc1`, for which the photoluminescence quantum yield (in C1CCOC1) was found to be 0.039.
Regarding `CC(=O)c1nc(-c2ccc(N(c3ccccc3)c3ccccc3)cc2)oc1C`, the photoluminescence quantum yield is 0.486 (in CC#N); 0.264 (in CCO); 0.659 (in CCOC(C)=O); 0.886 (in CCOCC); 0.972 (in ClCCl).
`c1ccc(-c2nc(-c3cccc4ccccc34)n3ccccc23)cc1` had a photoluminescence quantum yield (in ClCCl) of 0.125.
For the molecule `C(/C=C/Nc1ccccc1)=[NH+]c1ccccc1`, the photoluminescence quantum yield (in CS(C)=O) was 0.08.
For the setting “in ClCCl”, `Cc1cccc(-c2c3ccccc3cc3ccccc23)n1` displayed a photoluminescence quantum yield of 0.48.
As to `Cc1ccc(/C=C(\c2ccccc2)c2nc3ccccc3o2)cc1`, the photoluminescence quantum yield is 0.008 (in C1CCCCC1) and 0.004 (in CO).
Take `N#Cc1c(-n2nnc3cc(Cl)ccc32)n([C@H]2C[C@H](O)[C@@H](CO)O2)c2ncnc(N)c12`: the photoluminescence quantum yield (in CO) turned out to be 0.008.
For the setting “in CC#N”, `COc1ccc(-n2nc(C#N)c(N3CCCC3)n2)cc1OC` came in with a photoluminescence quantum yield of 0.996.
As for `CC1=C(C)C(c2c(C)c(C)c3n2[B-](F)(F)[N+]2=C(C)C(C)=C(C)C2=C3)=[N+]2C1=Cc1c(C)c(C)c(C)n1[B-]2(F)F`, the photoluminescence quantum yield (in ClCCl) came to 0.7.
Molecule `C[C@]12SC(=O)C=C1c1nc(-c3ccccc3)[nH]c1C1=CC(=O)S[C@@]12C` returned a photoluminescence quantum yield (in CC#N) of 0.16.
For the setting “in CC#N”, `N#C/C(=C\c1ccc(C(F)(F)F)cc1)c1nc(-c2ccc(Cl)cc2)cs1` had a photoluminescence quantum yield of 0.057.
For `COc1ccc(/C=C(\c2ccccc2)c2nc3ccccc3s2)cc1`, the photoluminescence quantum yield (in CO) was found to be 0.001.
Turning to `COc1ccc(CCNC(=O)c2sc(-c3ccc(-c4cc(-c5ccc(C(C)(C)C)cc5)c(C(=O)NCCc5ccc(OC)c(OC)c5)s4)s3)cc2-c2ccc(C(C)(C)C)cc2)cc1OC`, the photoluminescence quantum yield (in ClCCl) was found to be 0.27.
As to `c1ccc(-c2nc(-c3ccccc3)c(-c3ccccc3)o2)cc1`, the photoluminescence quantum yield (in Cc1ccccc1) stood at 0.36.
The molecule `CC1=CC(C)=[N+]2C1=C(c1ccccc1)c1c(C)cc(/C=C/c3ccc(O)cc3)n1[B-]2(F)F` came in with a photoluminescence quantum yield (in O) of 0.37.
On to `Cc1cc(C)c(-c2nnc(-c3ccc(-n4c5ccccc5c5ccccc54)c(C)c3)o2)c(C)c1`, for which the photoluminescence quantum yield (in Cc1ccccc1) amounted to 0.44.
`COc1ccccc1C1=C2C(C)=CC(C)=[N+]2[B-](F)(F)n2c(C)cc(C)c21`: the photoluminescence quantum yield runs as follows: (in C1CCOC1) 0.87; (in CC#N) 0.57; (in CC(=O)C(C)(C)C) 0.74; (in CC(C)=O) 0.78; (in CCCCCC) 0.98; (in CCOC(C)=O) 0.76. Moreover, under “in CO”, the photoluminescence quantum yield is 0.69.
In turn, `Oc1ccc2ncccc2c1` came in with a photoluminescence quantum yield (in CC#N) of 0.088; a photoluminescence quantum yield (in CCCC#N) of 0.086; a photoluminescence quantum yield (in CO) of 0.107; a photoluminescence quantum yield (in Cc1ccccc1) of 0.008; a photoluminescence quantum yield (in ClCCl) of 0.043.
Under setting [1], `CC1(C)c2ccccc2N(c2ccc3c(c2)c2ccccc2c2nc4ccccc4nc32)c2ccccc21` registered a photoluminescence quantum yield of 0.42.
Under “in CS(C)=O”, `COc1ccc(-c2cc(/C=C/c3ccc(N(c4ccccc4)c4ccccc4)cc3)c(C#N)c(N3CCCCC3)c2)cc1` displayed a photoluminescence quantum yield of 0.57.
As for `N#CC(C#N)=Cc1ccc2c(c1)c1ccccc1n2-c1cc2ccccc2c2ccccc12`, the photoluminescence quantum yield is, setting by setting: (in CC#N) 0.09; (in CCCCC) 0.16; (in Cc1ccccc1) 0.16; (in ClCCl) 0.04.
Molecule `C[Si]1(C)c2ccc(-c3ccc(N(c4ccccc4)c4ccccc4)cc3)cc2C=Cc2cc(-c3ccc(N(c4ccccc4)c4ccccc4)cc3)ccc21` returned a photoluminescence quantum yield (in ClCCl) of 0.43.
`c1ccc(-c2nc3sc4cc5c(cc4c3s2)OCO5)cc1`: the photoluminescence quantum yield (in CS(C)=O) stood at 0.62.
The molecule `CCn1c2cc(-c3ccc(-c4cccs4)s3)ccc2c2ccc(-c3ccc(-c4cccs4)s3)cc21` had a photoluminescence quantum yield (in ClCCl) of 0.482.
Molecule `CCOC(=O)c1c2c3c(cccc3c3cc4ccccc4cc13)N(C)C2=O` showed a photoluminescence quantum yield (in CC#N) of 0.37.
In the case of `Cc1ccc(C2=Nc3cccc4[n+]3[B-](F)(O2)OC(c2ccc(C)cc2)=N4)cc1`, the photoluminescence quantum yield (in ClCCl) amounted to 0.3.
On the same count and under the same terms, the same measure for `CCOC(=O)/N=c1/oc2cc(OC)ccc2cc1C#N`: 0.0065.
Consider `COc1ccc(N(c2ccc(C=C(c3ccccc3)c3ccccc3)cc2)c2ccc(C=C(c3ccccc3)c3ccccc3)cc2)cc1`, for which the photoluminescence quantum yield (in Cc1ccccc1) was 0.06.
Consider `COc1ccccc1-n1nc(C#N)c(N2CCCC2)n1`, for which, for the setting “in CC#N”, the photoluminescence quantum yield was found to be 0.456.
For `N#Cc1cc(-c2ccc(N3c4ccccc4Oc4ccccc43)cc2)c(-c2ccc(N3c4ccccc4Oc4ccccc43)cc2)cc1C#N`, the photoluminescence quantum yield amounted to 0.42 (in Cc1ccccc1) and 0.77 under setting [1].
In turn, `[BH3-][P+]1(c2ccccc2)c2ccccc2-c2sc3ccccc3c21` (stereo unspecified) gave a photoluminescence quantum yield (in ClCCl) of 0.38.

Source of the values: the Deep4Chem optical property database.
